The values below come from US7935680B2, “Methods for modulating the axonal growth of central nervous system neurons” (Children's Medical Center Corporation, priority 1997, dated 2011).

Entries after “also recorded” stand apart in the source; their conditions may differ.

Common to all, as to format: cell-based
For data set [1], the system named is goldfish retinal ganglion cells. In words: Axonal outgrowth from dissociated goldfish retinal ganglion cell cultures. To be noted: for effect of reducing agents on outgrowth stimulated by AF-1: a-tocopherol 30 μM, MEG 100 μM; for decline of AF-1 activity: n.s. How it is done: Axogenesis factor-1 was obtained essentially as described in Schwalb et al., 1995, and Schwalb et al., Neuroscience, 72: 901-910, 1996, the contents of which are incorporated herein by reference). Optic nerves were dissected, cut into fragments 1 mm in length, and incubated in a ratio of 6 nerves in 3 ml of either L-15 media (Gibco BRL) or phosphate-buffered saline (Gibco BRL). After 3-4 hours, nerve fragments were removed by filtering through a 0.22 μm pore low protein-binding filter (Gelman). A low molecular weight fraction of the conditioned media was prepared by ultrafiltration, first with a molecular weight cut-off of 3 kDa (Amicon Centriprep-3), then with a cut-off of 1 kDa (Filtron). The filtrate was used as a positive control at 20-30% final concentration. […] Goldfish (Comet Variety, Mt. Parnell Fisheries, Mt. Parnell Pa.), 6-10 cm in length, were dark-adapted and their retinas dissected. Retinas were incubated with papain (20 μg/ml), activated with cysteine (2.8 mM) for 30 minutes at room temperature, then dissociated by gentle trituration. […] Neuroscience 15: 5514-5625, 1995, the contents of which are incorporated herein by reference). […] Cells were maintained at 21° C. in serum free, defined media containing insulin, selenium, transferrin, bovine serum albumin, catalase, superoxide dismutase, hormones, and vitamins in Eagle's L-15 media as described in Schwalb et al., 1995, the contents of which are incorporated herein by reference). Dissociated cultures of purified rat retinal ganglion cells were prepared by immunopanning as described in Barres et al., Neuron, 1: 791-803, 1988, the contents of which are incorporated herein by reference). In brief, retinas from postnatal day 8 Sparague-Dawley rats were dissociated using papain activated with cysteine. Macrophages were removed by incubation with an anti-rat macrophage antibody (Accurate) followed by immunopanning with an anti-rabbit 1gG antibody. Ganglion cells were isolated by immunopanning with an anti-Thy-1 antibody, then dislodged with trypsin for use in low-density cultures. Rat retinal ganglion cells were maintained at 37° C. in a CO2 incubator using the same medium described above except for the presence of 30 mM bicarbonate. In a typical experiment, samples were plated in quadruplicate in randomized positions of a 24-well plate and the code was concealed to ensure that growth was evaluated in a blinded fashion. Each experiment contained 4 wells of a negative control (media plus supplements only) and 4 wells of a positive control (a standardized AF-1 sample of known activity). […] After the completion of counting, the code was broken, the data tabulated, and means and standard errors were calculated for the 4 replicate wells of each sample using Cricket Graph (CA Associates, […].). […] Group comparisons were based upon pairwise, 2-tailed Student's t-tests. Several independent experiments were performed for most samples, as noted in the figure legends. […] Cell survival is reported as the number of viable RGCs per high-powered field.

Data set [2] shares this test system. The data set can be described thus: Cell survival in goldfish retinal ganglion cell cultures (viable RGCs per field). How it is done:
Goldfish (Comet Variety, Mt. Parnell Fisheries, Mt. Parnell Pa.), 6-10 cm in length, were dark-adapted and their retinas dissected. Retinas were incubated with papain (20 μg/ml), activated with cysteine (2.8 mM) for 30 minutes at room temperature, then dissociated by gentle trituration. […] Low density cultures were achieved by plating c. 5×10^3 cells/well into poly L-lysine coated, 24-well culture dishes (Costar, Cambridge, Mass.). […] In brief, retinas from postnatal day 8 Sparague-Dawley rats were dissociated using papain activated with cysteine. Macrophages were removed by incubation with an anti-rat macrophage antibody (Accurate) followed by immunopanning with an anti-rabbit 1gG antibody. Ganglion cells were isolated by immunopanning with an anti-Thy-1 antibody, then dislodged with trypsin for use in low-density cultures. Rat retinal ganglion cells were maintained at 37° C. in a CO2 incubator using the same medium described above except for the presence of 30 mM bicarbonate.
In a typical experiment, samples were plated in quadruplicate in randomized positions of a 24-well plate and the code was concealed to ensure that growth was evaluated in a blinded fashion. Each experiment contained 4 wells of a negative control (media plus supplements only) and 4 wells of a positive control (a standardized AF-1 sample of known activity). Growth and survival were assessed after 6 days for all ganglion cells in 25 consecutive fields of each well using phase contrast microscopy at 400× magnification (c. 150 ganglion cells counted per well). […] After the completion of counting, the code was broken, the data tabulated, and means and standard errors were calculated for the 4 replicate wells of each sample using Cricket Graph (CA Associates, Islandia, N.Y.). Data were normalized by subtracting the growth in the negative controls (usually 4-5%) and dividing by the net growth in the positive controls. […] Group comparisons were based upon pairwise, 2-tailed Student's t-tests. Several independent experiments were performed for most samples, as noted in the figure legends. In some cases, cell viability was assessed with the dye 5,6-carboxyfluorescein diacetate. Cell survival is reported as the number of viable RGCs per high-powered field.

The test system of data set [3] is rat retinal ganglion cells. In words: Axonal outgrowth from purified rat retinal ganglion cells. The conditions noted are these: 6-TG 10 μM, rat RGCs. The protocol:
Goldfish (Comet Variety, Mt. Parnell Fisheries, Mt. Parnell Pa.), 6-10 cm in length, were dark-adapted and their retinas dissected. Retinas were incubated with papain (20 μg/ml), activated with cysteine (2.8 mM) for 30 minutes at room temperature, then dissociated by gentle trituration. Repeated cycles of trituration and sedimentation yielded cultures nearly homogeneous in ganglion cells, which are readily identified by their oval shape, phase-bright appearance, size (diameter 15 μm), and extension of only 1 or 2 neurites of uniform caliber; these criteria have been verified by retrograde labeling (see Schwartz & Agranoff, Brain Res. 206: 331-343, 1981 and Schwalb et al., J. Neuroscience 15: 5514-5625, 1995, the contents of which are incorporated herein by reference). Low density cultures were achieved by plating c. 5×10^3 cells/well into poly L-lysine coated, 24-well culture dishes (Costar, Cambridge, Mass.). Cells were maintained at 21° C. in serum free, defined media containing insulin, selenium, transferrin, bovine serum albumin, catalase, superoxide dismutase, hormones, and vitamins in Eagle's L-15 media as described in Schwalb et al., 1995, the contents of which are incorporated herein by reference). Dissociated cultures of purified rat retinal ganglion cells were prepared by immunopanning as described in Barres et al., Neuron, 1: 791-803, 1988, the contents of which are incorporated herein by reference). In brief, retinas from postnatal day 8 Sparague-Dawley rats were dissociated using papain activated with cysteine. Macrophages were removed by incubation with an anti-rat macrophage antibody (Accurate) followed by immunopanning with an anti-rabbit 1gG antibody. Ganglion cells were isolated by immunopanning with an anti-Thy-1 antibody, then dislodged with trypsin for use in low-density cultures. Rat retinal ganglion cells were maintained at 37° C. in a CO2 incubator using the same medium described above except for the presence of 30 mM bicarbonate.
In a typical experiment, samples were plated in quadruplicate in randomized positions of a 24-well plate and the code was concealed to ensure that growth was evaluated in a blinded fashion. Each experiment contained 4 wells of a negative control (media plus supplements only) and 4 wells of a positive control (a standardized AF-1 sample of known activity). Growth and survival were assessed after 6 days for all ganglion cells in 25 consecutive fields of each well using phase contrast microscopy at 400× magnification (c. 150 ganglion cells counted per well). Extension of a process 5 cell diameters in length was the criterion for growth, since it clearly distinguishes stimulated cells from negative controls (see Schwalb et al., 1995). After the completion of counting, the code was broken, the data tabulated, and means and standard errors were calculated for the 4 replicate wells of each sample using Cricket Graph (CA Associates, Islandia, N.Y.). Data were normalized by subtracting the growth in the negative controls (usually 4-5%) and dividing by the net growth in the positive controls. In the most favorable experiments, more than 50% of retinal ganglion cells (RGCs) exposed to AF-1 extended axons 5 cell diameters in length after 6 days. Group comparisons were based upon pairwise, 2-tailed Student's t-tests. Several independent experiments were performed for most samples, as noted in the figure legends. In some cases, cell viability was assessed with the dye 5,6-carboxyfluorescein diacetate. […]

The mark [4] stands for this setting: DCF alone, with AF-1, or with guanosine.

In the case of `O=c1[nH]cnc2nc[nH]c12` [hypoxanthine], the axonal outgrowth activity entry in data set [1] (dose-response, FIG. 4) was “no activity at all”; in data set [1] (dose-response, FIG. 4, listed as Hypoxanthine), “inactive”.

Consider `Nc1ncnc2c1ncn2[C@@H]1O[C@H](COP(=O)(O)O)[C@@H](O)[C@H]1O` [AMP, adenosine 5′ monophosphate], for which the axonal outgrowth activity result in data set [1] (at 100 μM) is “marginally significant level of activity”.

Consider `OC[C@H]1O[C@@H](n2cnc3c2NC=NC[C@H]3O)C[C@@H]1O` [DCF, deoxycoformycin], for which, in data set [1] (setting [4]), the “effects of DCF on outgrowth” value was “did not occur”. In addition, the “effects of DCF on survival” value in data set [2] (setting [4]) is “did not occur”. `Nc1ncnc2c1ncn2[C@@H]1O[C@H](COP(=O)(O)OP(=O)(O)OP(=O)(O)O)[C@@H](O)[C@H]1O` [ATP, adenosine triphosphate]: the axonal outgrowth activity result in data set [1] (at 10 μM) was “marginally significant level of activity”; in data set [1] (at 100 μM) it was “not at 100 μM”. As to glutathione a-methyl ester [MEG], the “effect of reducing agents on outgrowth stimulated by AF-1” value in data set [1] is “no effect; also recorded: not mimicked”. Turning to `O=[N+]([O-])c1ccc(CSc2ncnc3c2ncn3C2OC(CO)C(O)C2O)cc1` (centres unmarked) [NBTI, nitrobenzylthio inosine], in data set [1] (NBTI 20 μM), the “effect on the activity of AF-1” value is listed as “no effect”. Further, the “loss of activity of inosine” value in data set [1] (NBTI 20 μM, 50 μM inosine) amounted to 86%. Further, the “loss of activity of guanosine” value in data set [1] (NBTI 20 μM, 100 μM guanosine) stood at 93%. Besides, the “decline of AF-1 activity” value in data set [1] (NBTI 20 μM, dipyridamole 10 μM) amounted to 10%. Turning to `CCCCCC[C@@H]([C@@H](C)O)n1cnc2c(N)ncnc21` (racemic) [EHNA, erythro-9-(2-hydroxy-3-nonyl) adenine], in data set [1] (10 μM EHNA, 100 μM adenosine), the “effect on adenosine-stimulated outgrowth” value is on record as “rendered adenosine (100 μM) ineffective in stimulating outgrowth”. In data set [1] (EHNA 10 μM), the “reduction of growth stimulated by guanosine or AF-1” value is listed as “about 50%”. Moreover, the cell survival entry in data set [2] was “not altering cell survival”. Consider `Nc1nc2nc[nH]c2c(=S)[nH]1` [6-TG, 6-thioguanine], for which, in data set [1] (6-TG 10 μM), the “effect on growth stimulated by 100 μM inosine or 100 μM guanosine” value is recorded as “no effect; also recorded: unaffected” and the “effect on growth stimulated by AF-1” value is “blocked all growth stimulated by AF-1; also recorded: suppressed growth induced by AF-1 below baseline; also recorded: completely blocked”. In addition, the “effect on CNTF-induced outgrowth” value in data set [3] is “blocked CNTF-induced outgrowth; also recorded: inhibited”.

On to `OCCN(CCO)c1nc(N2CCCCC2)c2nc(N(CCO)CCO)nc(N3CCCCC3)c2n1` [dipyridamole], for which the “effect of transport inhibitors on 6-TG blockade of AF-1-stimulated outgrowth” value in data set [1] (6-TG 10 μM, NBTI 20 μM, dipyridamole 10 μM) was “failed to prevent 6-TG from blocking outgrowth; also recorded: not restored”. Also, the “decline of AF-1 activity” value in data set [1] (NBTI 20 μM, dipyridamole 10 μM) is 25%.

For `Cc1c(C)c2c(c(C)c1O)CC[C@@](C)(CCC[C@H](C)CCC[C@H](C)CCCC(C)C)O2` [a-tocopherol], in data set [1], the “effect of reducing agents on outgrowth stimulated by AF-1” value is given as “no effect; also recorded: not mimicked”. Take `Cn1c(=O)c2[nH]c(-c3ccc(S(=O)(=O)O)cc3)nc2n(C)c1=O` [8-PST, 8-p-(sulfophenyltheophylline)]: the “effect on outgrowth stimulated by adenosine, guanosine, or AF-1” value in data set [1] (8-PST at 20 μM) is listed as “no effect”. For the same compound, in data set [1] (addition of 20 pM 8-PST), the “effect on outgrowth stimulated by AF-1, 100 μM adenosine or 100 μM guanosine” value is recorded as “unaffected”.

Regarding `Nc1nc2c(nc(Br)n2[C@@H]2O[C@@H]3COP(=O)(O)O[C@H]3[C@H]2O)c(=O)[nH]1` [8-Br cGMP, 8-bromo cyclic GMP], the axonal outgrowth activity entry in data set [1] (tested at concentrations between 1-100 μM) is “Neither dibutyryl cAMP (dBcAMP) nor 8-Br cGMP showed any activity”.

Turning to `Nc1ncnc2c1ncn2[C@@H]1O[C@H](COP(=O)(O)OP(=O)(O)O)[C@@H](O)[C@H]1O` [ADP, adenosine diphosphate], the axonal outgrowth activity entry in data set [1] (at 100 μM) was “marginally significant level of activity”. As for `Nc1nc(Cl)nc2c1ncn2[C@@H]1O[C@H](CO)[C@@H](O)[C@H]1O` [2-CA, 2-chloroadenosine], the “growth relative to baseline” value in data set [1] (100 μM, FIG. 2) is “diminishes growth below baseline levels”; in data set [1] (10 and 100 μM, 3 out of 3 experiments), “small but significant decrease in growth below the baseline”.

Consider “8-bromoadenosine-3′,5′ cyclic monophosphorothioate [Sp-8-Br-cAMPS]”, for which the axonal outgrowth activity result in data set [1] (concentrations up to 1 mM) was “inactive”. The same measure, in the same setting: the value for `Nc1nc2c(nc(Sc3ccc(Cl)cc3)n2[C@@H]2O[C@@H]3COP(=O)(O)O[C@H]3[C@H]2O)c(=O)[nH]1` [8-pcpt-cGMP, 8-(4-chlorophenylthio) guanosine-3′,5′-cyclic monophosphate] was “inactive”.
